Results reported in publication PMC7367873, “Dissecting the sequence determinants for dephosphorylation by the catalytic subunits of phosphatases PP1 and PP2A” (Nature Communications, 2020).

These substances were tested against T1, PP1c (Homo sapiens, UniProt P62136) (assay: Kinetics of phosphopeptide dephosphorylation by PP1c (EnzChek Phosphate Assay)). Conditions: non-competitive phosphatase activity assay, Supplementary Fig. 3c.
T1 construct: His tag with TEV site (N, cleaved yes); intein (pTXB1) (C, cleaved yes); made in house; host or cells: E. coli BL21Star(DE3)pRARE
Type: biochemical
Method: (§1) Prior to library dephosphorylation with subsequent MS analysis, as well as for the confirmation of MS results by directed peptide synthesis and dephosphorylation kinetics, the release of phosphate over time from peptides or libraries had to be monitored: The libraries and peptides were dissolved in 25% DMSO and 75% H2O at 10 mM. The EnzChek Phosphate Assay Kit (Thermo Fisher Scientific) was used to assess the kinetics/dynamics of the library or peptide dephosphorylation by PP1c and PP2Ac. The assay was carried out in a volume of 100 µL reaction buffer (20 mM Tris, 100 mM NaCl, 1 mM DTT, 0.15 units PNP, 0.2 mM MESG,) containing 100 µM phosphopeptide library or indicated concentrations of peptide and 25 nM phosphatase. Because of our goal to identify differences in selectivity, we used equimolar concentrations of the phosphatases. […] The change of absorbance was detected at 360 nm at 25 °C on a Synergy H4 microplate reader using the software Gen5. […] For analysis of enzyme kinetics, raw data were further analyzed in GraphPad Prism v6.
(§2) The datasets of Nterm or Cterm libraries treated with recombinant PP1c and PP2Ac were used. […] Data analysis was carried out in GraphPad Prism v6 and the kcat/Km was calculated by comparison to a phosphate standard. […]

T1 sequence (P62136 whole entry): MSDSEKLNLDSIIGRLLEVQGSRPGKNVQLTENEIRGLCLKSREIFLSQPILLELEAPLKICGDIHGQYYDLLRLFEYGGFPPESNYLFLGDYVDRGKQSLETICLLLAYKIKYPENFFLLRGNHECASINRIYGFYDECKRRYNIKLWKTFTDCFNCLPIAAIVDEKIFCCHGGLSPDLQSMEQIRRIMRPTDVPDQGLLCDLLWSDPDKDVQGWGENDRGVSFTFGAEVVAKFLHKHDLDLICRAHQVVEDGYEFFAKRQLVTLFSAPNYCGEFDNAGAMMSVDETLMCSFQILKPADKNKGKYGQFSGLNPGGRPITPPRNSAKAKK

Substance	dephosphorylation by PP1c of peptide with Pro in +1 (in words)
AAAApTPFGAK [Cterm peptide with Pro in +1]	good substrate

The substances below were run on PP1c/PP2Ac (assay: PP1c versus PP2Ac specificity of p-sites (pairwise comparison / hierarchical clustering of phosphoproteomic data)). Conditions: HeLa Kyoto lysate, 1 µM PP1c or PP2Ac.
Type: biochemical, human
Method: For phosphoproteomics, HeLa Kyoto cells were incubated with 20 nM Calyculin A (CST, #9902) for 10–15 min. This time point was determined empirically to yield maximal phosphatase inhibition without cells showing pleiotropic effects. Subsequently, cells were placed on ice and washed twice with cold PBS and scraped in lysis buffer (100 mM NaCl, 10 mM Tris, 0.1% IGEPAL, 1 mM EDTA, 1 mM EGTA, 20 nM Calyculin A, 1x cOmplete Mini protease inhibitor cocktail (Sigma), 1 mM DTT, 1 mM MnCl2, pH 7.5). After 10 pushes through an injection needle (21 G, BD), lysate was cleared from the insoluble fraction by centrifugation (10 min, 10^4 rcf, 4 °C). Protein concentration was then determined by a Bradford Assay and equal amounts of 1 mg total protein were incubated with recombinant PP1c/PP2Ac or buffer at a final phosphatase concentration of 1 µM in a total volume of 200 µL for 1 h at 30 °C. Lysates were then immediately placed on ice. PhosStop […] (Roche) was added and proteins were denatured by adding urea to a final concentration of 8 M taking into account the volume increase. Samples were then snap-frozen in liquid nitrogen for storage and subsequent MS analysis.
Downstream analysis of the phosphoproteomic datasets was carried out using the software tool Perseus[66]. For analysis of phosphoproteomic experiments, row-wise, median-normalized data (see previous section) was linked to known regulatory sites by PhosphoSitePlus entries and categorical columns for treatments were assigned. Reverse peptides and potential contaminants were filtered. Next, categorical columns for biological functions and treatments were assigned. TMT reporter intensities were then transformed into log2. At this point, all data were then filtered for valid values in all three replicates of at least one condition. Next, the distribution of TMT reporter intensities was assessed visually by plotting count-based histogramms and in a multiscatter plot using the Pearson correlation as an estimate of reproducibility. Next, NA (=not available: missing) values were replaced by imputation from a normal distribution (width 0.3, down-shift 1.8, per column). The data quality was routinely assessed by two means: First, by plotting a histogram of peptide length vs. counts and visualization of imputed values to confirm a normal distribution of the data, and secondly by principal component analysis (default settings in Perseus) to judge the sample grouping.
For hierarchical clustering, the results of the one-way ANOVA were processed for two more steps in Perseus: first data were filtered for significant hits from the one-way ANOVA and then subjected to z-transformation. Hierarchical clustering images were produced using Euclidean distance, 300 clusters and 10 rounds of iteration.
Also all further data processing for protein enrichment and extraction of protein sequences in positions −5 to +5 relative to the p-sites of interest for subsequent motif analysis was performed using RStudio with R v3.3.2 using the packages tidyverse and BioStrings. In order to study the sequence specificity of PP1c and PP2Ac on the protein level, position specific probability matrices, representing the relative occurrence for each amino acid surrounding pSer/pThr were produced by extracting sequence information in positions −5 to +5 for all PP1c/PP2Ac-sensitive class I p-sites. Next, the count for each amino acid in each position was divided by the total of all counts for a certain position, resulting in relative abundance. […] Importantly, amino acids with less than 25 counts in PP1-sensitive/-insensitive or PP2A-sensitive/insensitive comparisons were excluded. For calculating a heat map directly comparing PP1c against PP2Ac, these fold changes were divided. […] Obtained p-values were adjusted for multiple testing using the method of Benjamini and Hochberg.
PP1c/PP2Ac-sensitive class I sites were divided into three classes as illustrated for PP1c in Supplementary Fig. 4c. […]

Substance	GAB2 pS210 dephosphorylation in phosphoproteomic assay
LHQCISRRAENARSASFSQGTRASFLMRSDT [GAB2 210]	dephosphorylated by PP1c but not PP2Ac

Same assay, conditions: p-site significantly decreased exclusively by PP1c or PP2Ac; 1 µM phosphatase, HeLa Kyoto lysate, 1 h, 30 °C

Substance	Sensitivity (phosphatase exclusively dephosphorylating the p-site)
SRSF2 191: S/R-rich splicing factor p-site, window RSRSRSPPPVS	PP1c
SRSF2 189: S/R-rich splicing factor p-site, window RSRSRSRSPPP	PP1c
HPPRKISTEDINKRLSLPADIRLPEGYLEKL [CDK16 119]	PP1c
HSF1 303: 14-3-3 interaction site, window KEEPPSPPQSP	PP2Ac
KRKSKSRSRSKRPPKSPEEEGQMSS______ [SRSF8 273]	PP1c
SRSF8 158: S/R-rich splicing factor p-site, window SRYSRSPYSRS	PP1c
SRSF8 163: S/R-rich splicing factor p-site, window SPYSRSPYSRS	PP1c
SRSF11 207: S/R-rich splicing factor p-site, window AAGLVSPSLKS	PP2Ac
SRSF5 231: S/R-rich splicing factor p-site, window KSRSVSRSPVP	PP1c
LHQCISRRAENARSASFSQGTRASFLMRSDT [GAB2 210]	PP1c
SRSF1 199: S/R-rich splicing factor p-site, window VDGPRSPSYGR	PP1c
YAP1 127: 14-3-3 interaction site, window VRAHSSPASLQ	PP2Ac
NIFSRGANRMRGRLGSVDSFERSNSLASEKD [TBC1D4 588]	PP1c
USP8 718: 14-3-3 interaction site, window LKRSYSSPDIT	PP1c
SRSF10 133: S/R-rich splicing factor p-site, window RSRSRSFDYNY	PP1c
HSF1 307: 14-3-3 interaction site, window PSPPQSPRVEE	PP2Ac
EVPVPPPVPPRRRPESAPAESSPSKIMSKHL [SOS1 1161]	PP1c
SRSF4/5/6 113;117;119: S/R-rich splicing factor p-site, window VENLSSRCSWQ	PP2Ac
SPPPVSKRESKSRSRSKSPPKSPEEEGAVSS [SRSF2 206]	PP1c
ISPTIVQQFGYQRRASDDGKLTDPSKTSNTI [RAF1 43]	PP1c
KGDIKSKSRSRSQSRSNSPLPVPPSKARSVS [SRSF6 301]	PP1c
SRSF5 233: S/R-rich splicing factor p-site, window RSVSRSPVPEK	PP1c
SRSF7 192: S/R-rich splicing factor p-site, window SRYFQSPSRSR	PP1c

These substances were tested against T2, PP2Ac (Homo sapiens, UniProt P67775) (assay: Kinetics of phosphopeptide dephosphorylation by PP2Ac (EnzChek Phosphate Assay)). Conditions: non-competitive phosphatase activity assay, Supplementary Fig. 3c.
T2 construct: purchased Cayman Chemical 10011237
Type: biochemical
Method: as §1, §2

T2 sequence (P67775 1-308 limits assumed): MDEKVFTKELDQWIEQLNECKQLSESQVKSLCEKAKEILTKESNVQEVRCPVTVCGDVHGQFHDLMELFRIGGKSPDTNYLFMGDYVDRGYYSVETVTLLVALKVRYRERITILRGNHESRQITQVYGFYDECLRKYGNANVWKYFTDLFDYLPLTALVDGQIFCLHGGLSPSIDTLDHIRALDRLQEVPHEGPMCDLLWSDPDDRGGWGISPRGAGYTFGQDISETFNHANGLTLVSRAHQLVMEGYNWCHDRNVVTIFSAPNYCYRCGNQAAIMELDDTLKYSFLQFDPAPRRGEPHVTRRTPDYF

Substance	dephosphorylation by PP2Ac of peptide with Pro in +1 (in words)
AAAApTPFGAK [Cterm peptide with Pro in +1]	unable to dephosphorylate
